Reference: PMC9401487 (Clinical Cancer Research, 2021)

System: patients with advanced solid tumors
Experiment: Phase I safety and tolerability
Type: in vivo, human
[1] = Cohort 7 (N=6), co-dosing 40 mg QD + carboplatin days 1 and 2
[2] = Cohort 7: 40 mg QD days 1–2 + carboplatin AUC5 day 1, 6 patients
[3] = all 36 patients, ceralasertib + carboplatin

SMILES: C[C@@H]1COCCN1c1cc(C2([S@](C)(=N)=O)CC2)nc(-c2cc[nH]c3nccc2-3)n1 [ceralasertib]
- TEAE Constipation, Grade 1–2 [1]: 3 (50) patients, n (%)
- TEAE Constipation, Grade ≥3 [1]: 0 patients, n (%)
- TEAE Contusion, Grade 1–2 [1]: 1 (17) patients, n (%)
- TEAE Contusion, Grade ≥3 [1]: 0 patients, n (%)
- TEAE Cough, Grade 1–2 [1]: 0 patients, n (%)
- TEAE Cough, Grade ≥3 [1]: 0 patients, n (%)
- TEAE Decreased appetite, Grade 1–2 [1]: 3 (50) patients, n (%)
- TEAE Decreased appetite, Grade ≥3 [1]: 0 patients, n (%)
- TEAE Diarrhea, Grade 1–2 [1]: 1 (17) patients, n (%)
- TEAE Diarrhea, Grade ≥3 [1]: 0 patients, n (%)
- TEAE Dizziness, Grade 1–2 [1]: 0 patients, n (%)
- TEAE Dizziness, Grade ≥3 [1]: 0 patients, n (%)
- TEAE Dyspnea, Grade 1–2 [1]: 0 patients, n (%)
- TEAE Dyspnea, Grade ≥3 [1]: 0 patients, n (%)
- TEAE Fatigue, Grade 1–2 [1]: 4 (67) patients, n (%)
- TEAE Fatigue, Grade ≥3 [1]: 0 patients, n (%)
- TEAE Hypocalcemia, Grade 1–2 [1]: 1 (17) patients, n (%)
- TEAE Hypocalcemia, Grade ≥3 [1]: 0 patients, n (%)
- TEAE Insomnia, Grade 1–2 [1]: 0 patients, n (%)
- TEAE Insomnia, Grade ≥3 [1]: 0 patients, n (%)
- TEAE Lower respiratory tract infection, Grade 1–2 [1]: 0 patients, n (%)
- TEAE Lower respiratory tract infection, Grade ≥3 [1]: 0 patients, n (%)
- TEAE Nausea, Grade 1–2 [1]: 5 (83) patients, n (%)
- TEAE Nausea, Grade ≥3 [1]: 0 patients, n (%)
- TEAE Neutropenia, Grade 1–2 [1]: 0 patients, n (%)
- TEAE Neutropenia, Grade ≥3 [1]: 0 patients, n (%)
- TEAE Neutrophil count decreased, Grade 1–2 [1]: 0 patients, n (%)
- TEAE Neutrophil count decreased, Grade ≥3 [1]: 1 (17) patients, n (%)
- TEAE Platelet count decreased, Grade 1–2 [1]: 2 (33) patients, n (%)
- TEAE Platelet count decreased, Grade ≥3 [1]: 1 (17) patients, n (%)
- TEAE Pyrexia, Grade 1–2 [1]: 1 (17) patients, n (%)
- TEAE Pyrexia, Grade ≥3 [1]: 0 patients, n (%)
- TEAE Thrombocytopenia, Grade 1–2 [1]: 0 patients, n (%)
- TEAE Thrombocytopenia, Grade ≥3 [1]: 0 patients, n (%)
- TEAE Upper respiratory tract infection, Grade 1–2 [1]: 1 (17) patients, n (%)
- TEAE Upper respiratory tract infection, Grade ≥3 [1]: 0 patients, n (%)
- TEAE Vomiting, Grade 1–2 [1]: 0 patients, n (%)
- TEAE Vomiting, Grade ≥3 [1]: 1 (17) patients, n (%)
- TEAE White blood cell count decreased, Grade 1–2 [1]: 0 patients, n (%)
- TEAE White blood cell count decreased, Grade ≥3 [1]: 0 patients, n (%)
- Number of DLTs [2]: one DLT of grade 4 platelet count decreased
- SRC decision (tolerability) [2]: declared safe and well tolerated
- Patients who discontinued treatment because of an AE (N=36): 14%
- TEAE Abdominal pain, Grade 1–2 (Total (N=36)): 5 (14) patients, n (%)
- TEAE Abdominal pain, Grade ≥3 (Total (N=36)): 1 (3) patients, n (%)
- TEAE Alanine aminotransferase increased, Grade 1–2 (Total (N=36)): 3 (8) patients, n (%)
- TEAE Alanine aminotransferase increased, Grade ≥3 (Total (N=36)): 1 (3) patients, n (%)
- TEAE Anemia, Grade 1–2 (Total (N=36)): 11 (31) patients, n (%)
- TEAE Anemia, Grade ≥3 (Total (N=36)): 14 (39) patients, n (%)
- TEAE Any AE, Grade 1–2 (Total (N=36)): 9 (25) patients, n (%)
- TEAE Any AE, Grade ≥3 (Total (N=36)): 27 (75) patients, n (%)
- TEAE Arthralgia, Grade 1–2 (Total (N=36)): 4 (11) patients, n (%)
- TEAE Arthralgia, Grade ≥3 (Total (N=36)): 0 patients, n (%)
- TEAE Aspartate aminotransferase increased, Grade 1–2 (Total (N=36)): 3 (8) patients, n (%)
- TEAE Aspartate aminotransferase increased, Grade ≥3 (Total (N=36)): 1 (3) patients, n (%)
- TEAE Constipation, Grade 1–2 (Total (N=36)): 10 (28) patients, n (%)
- TEAE Constipation, Grade ≥3 (Total (N=36)): 0 patients, n (%)
- TEAE Contusion, Grade 1–2 (Total (N=36)): 4 (11) patients, n (%)
- TEAE Contusion, Grade ≥3 (Total (N=36)): 0 patients, n (%)
- TEAE Cough, Grade 1–2 (Total (N=36)): 5 (14) patients, n (%)
- TEAE Cough, Grade ≥3 (Total (N=36)): 0 patients, n (%)
- TEAE Decreased appetite, Grade 1–2 (Total (N=36)): 8 (22) patients, n (%)
- TEAE Decreased appetite, Grade ≥3 (Total (N=36)): 0 patients, n (%)
- TEAE Diarrhea, Grade 1–2 (Total (N=36)): 6 (17) patients, n (%)
- TEAE Diarrhea, Grade ≥3 (Total (N=36)): 0 patients, n (%)
- TEAE Dizziness, Grade 1–2 (Total (N=36)): 4 (11) patients, n (%)
- TEAE Dizziness, Grade ≥3 (Total (N=36)): 0 patients, n (%)
- TEAE Dyspnea, Grade 1–2 (Total (N=36)): 5 (14) patients, n (%)
- TEAE Dyspnea, Grade ≥3 (Total (N=36)): 0 patients, n (%)
- TEAE Fatigue, Grade 1–2 (Total (N=36)): 16 (44) patients, n (%)
- TEAE Fatigue, Grade ≥3 (Total (N=36)): 1 (3) patients, n (%)
- TEAE Hypocalcemia, Grade 1–2 (Total (N=36)): 4 (11) patients, n (%)
- TEAE Hypocalcemia, Grade ≥3 (Total (N=36)): 0 patients, n (%)
- TEAE Insomnia, Grade 1–2 (Total (N=36)): 5 (14) patients, n (%)
- TEAE Insomnia, Grade ≥3 (Total (N=36)): 0 patients, n (%)
- TEAE Lower respiratory tract infection, Grade 1–2 (Total (N=36)): 4 (11) patients, n (%)
- TEAE Lower respiratory tract infection, Grade ≥3 (Total (N=36)): 1 (3) patients, n (%)
- TEAE Nausea, Grade 1–2 (Total (N=36)): 20 (56) patients, n (%)
- TEAE Nausea, Grade ≥3 (Total (N=36)): 1 (3) patients, n (%)
- TEAE Neutropenia, Grade 1–2 (Total (N=36)): 4 (11) patients, n (%)
- TEAE Neutropenia, Grade ≥3 (Total (N=36)): 9 (25) patients, n (%)
- TEAE Neutrophil count decreased, Grade 1–2 (Total (N=36)): 0 patients, n (%)
- TEAE Neutrophil count decreased, Grade ≥3 (Total (N=36)): 4 (11) patients, n (%)
- TEAE Platelet count decreased, Grade 1–2 (Total (N=36)): 4 (11) patients, n (%)
- TEAE Platelet count decreased, Grade ≥3 (Total (N=36)): 2 (6) patients, n (%)
- TEAE Pyrexia, Grade 1–2 (Total (N=36)): 9 (25) patients, n (%)
- TEAE Pyrexia, Grade ≥3 (Total (N=36)): 0 patients, n (%)
- TEAE Thrombocytopenia, Grade 1–2 (Total (N=36)): 12 (33) patients, n (%)
- TEAE Thrombocytopenia, Grade ≥3 (Total (N=36)): 13 (36) patients, n (%)
- TEAE Upper respiratory tract infection, Grade 1–2 (Total (N=36)): 4 (11) patients, n (%)
- TEAE Upper respiratory tract infection, Grade ≥3 (Total (N=36)): 0 patients, n (%)
- TEAE Vomiting, Grade 1–2 (Total (N=36)): 7 (19) patients, n (%)
- TEAE Vomiting, Grade ≥3 (Total (N=36)): 2 (6) patients, n (%)
- TEAE White blood cell count decreased, Grade 1–2 (Total (N=36)): 0 patients, n (%)
- TEAE White blood cell count decreased, Grade ≥3 (Total (N=36)): 5 (14) patients, n (%)
- TEAE anemia, any grade, patients [3]: 69.4%
- TEAE fatigue, any grade, patients [3]: 47%
- TEAE grade ≥3 anemia, patients [3]: 39%
- TEAE grade ≥3 neutropenia, patients [3]: 25%
- TEAE grade ≥3 thrombocytopenia, patients [3]: 36%
- TEAE nausea, any grade, patients [3]: 58%
- TEAE neutropenia, any grade, patients [3]: 36%
- TEAE thrombocytopenia, any grade, patients [3]: 69.4%
- AEs with a fatal outcome (all cohorts): no AEs with a fatal outcome were reported
- Clinical chemistry laboratory variables, vital signs, ECG parameters (all cohorts): No clinically significant findings
- Patients with dose modifications (cycle 1 and beyond, N=36): 47%
- Patients with dose reductions (cycle 1 and beyond, N=36): 25%
- Patients with treatment interruptions (cycle 1 and beyond, N=36): 31%
- MTD dose schedule (concurrent) (days 1–2, with carboplatin AUC5, 21-day cycles): 40 mg once daily
- MTD dose schedule (sequential) (days 4–13, with carboplatin AUC5, 21-day cycles): 20 mg twice daily
- Patients who experienced ≥1 TEAE (safety set N=36): 36 patients
